Laboratory results: patent US10137170B2, “Lipidated incretin receptor ligand human immunoglobulin Fc-region fusion polypeptides” (INDIANA UNIVERSITY RESEARCH AND TECHNOLOGY CORPORATION, priority 2013, dated 2018)
Starred links: 1 amine or outer side, 2 acyl side, 3 side chain; linkers in the order of their positions; H or OH if unused. Positions of bridges follow the written chain, without caps; N, C: chain ends. Non-standard residues stand in square brackets, D forms with d. Groups on a side chain read outwards from the residue. Chains are numbered I, II in the order given. *: point of attachment. γGlu = O=C(O)[C@H](CCC(=O)[*:2])N[*:1]; Desaminotyrosyl = O=C(CCc1ccc(O)cc1)*; Palmitoyl = CCCCCCCCCCCCCCCC(=O)*; X1 = O=C(C[*:1])[*:2]; Aib = CC(C)(N)C(=O)O

How the values were obtained:
Assay type in all cases: cell-based
human GCG-R = target: T1, human GCG-R (Homo sapiens, UniProt P47871); test: Cyclic AMP (cAMP) assay, cell-suspension format, stably expressed human GCG-receptor in CHO cells; settings: for EC50: Table 1, cAMP, CHO cells
T1 construct: host or cells: CHO-K1 (cAMP Hunter)
Method: (§1) On the day of the experiment, the medium was removed and the cell monolayer was washed with 10 mL phosphate buffered saline (PBS) per flask. […] The flask was gently tapped and the cell suspension was pooled. The cell suspension was centrifuged for 3 min. at 150×g, and supernatant was discarded. The cell pellet was resuspended in assay buffer and cell number determined. Cell concentration was adjusted to 2×10^5 cells/mL. A 25 μL cell suspension aliquot was transferred into each well of a 96-well plate using Multi-drop dispenser (5000 cells/well). A 25 μL aliquot of diluted compound was transferred to the cell plate and the cell suspension incubated for 30 min. at RT on a plate shaker (450 rpm). The reaction was stopped by addition of lysis buffer and cAMP generated was determined using the cAMP dynamic 2 kit from Cisbio following the manufacturer's instructions. The time resolved fluorescence signal was determined using an EnVision (PerkinElmer). Cyclic AMP production was calculated based on standard curve run in parallel for every experiment. Data were analyzed using Excel Fit software.

human GLP-R = target: T2, human GLP-R (Homo sapiens, UniProt P43220); test: Cyclic AMP (cAMP) assay, cell-suspension format, stably expressed human GLP-1-receptor in CHO cells
T2 construct: host or cells: CHO-K1 (cAMP Hunter)
Method: as §1

GIP-R = target: T3, GIP-R (Homo sapiens, UniProt P48546); test: Cyclic AMP (cAMP) assay, cell-suspension format, stably expressed human GIP-receptor in CHO cells
T3 construct: host or cells: CHO-K1 (cAMP Hunter)
T3 sequence (P48546 22-466): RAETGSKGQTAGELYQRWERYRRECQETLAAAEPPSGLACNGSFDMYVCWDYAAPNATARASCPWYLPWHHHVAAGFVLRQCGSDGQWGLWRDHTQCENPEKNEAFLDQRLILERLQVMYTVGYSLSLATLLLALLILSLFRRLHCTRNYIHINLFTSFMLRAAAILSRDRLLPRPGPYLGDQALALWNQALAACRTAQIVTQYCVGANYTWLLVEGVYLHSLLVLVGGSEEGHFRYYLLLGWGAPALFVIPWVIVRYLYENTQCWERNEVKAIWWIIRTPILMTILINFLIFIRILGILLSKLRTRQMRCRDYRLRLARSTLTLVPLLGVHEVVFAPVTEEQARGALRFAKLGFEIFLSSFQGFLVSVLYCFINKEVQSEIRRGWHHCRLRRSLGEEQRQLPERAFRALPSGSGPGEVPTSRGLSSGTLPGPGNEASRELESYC
Method: as §1

[1] = Table 1, relative to GCG maximum
[2] = Table 1, relative to GLP-1 maximum
[3] = Table 1, relative to GIP maximum

T1 sequence (P47871 26-477): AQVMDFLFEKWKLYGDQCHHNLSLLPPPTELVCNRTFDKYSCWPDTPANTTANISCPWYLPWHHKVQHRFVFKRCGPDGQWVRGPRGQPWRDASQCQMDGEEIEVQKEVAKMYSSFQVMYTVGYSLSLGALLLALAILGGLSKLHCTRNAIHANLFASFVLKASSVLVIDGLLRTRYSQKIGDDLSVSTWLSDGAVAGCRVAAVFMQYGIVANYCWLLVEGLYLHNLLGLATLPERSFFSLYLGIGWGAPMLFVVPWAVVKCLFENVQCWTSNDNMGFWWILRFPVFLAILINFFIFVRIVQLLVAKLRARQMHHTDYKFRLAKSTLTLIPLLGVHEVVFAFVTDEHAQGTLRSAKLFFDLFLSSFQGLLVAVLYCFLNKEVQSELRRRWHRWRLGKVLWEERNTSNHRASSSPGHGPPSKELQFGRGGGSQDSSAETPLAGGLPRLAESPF
T2 sequence (P43220 24-463): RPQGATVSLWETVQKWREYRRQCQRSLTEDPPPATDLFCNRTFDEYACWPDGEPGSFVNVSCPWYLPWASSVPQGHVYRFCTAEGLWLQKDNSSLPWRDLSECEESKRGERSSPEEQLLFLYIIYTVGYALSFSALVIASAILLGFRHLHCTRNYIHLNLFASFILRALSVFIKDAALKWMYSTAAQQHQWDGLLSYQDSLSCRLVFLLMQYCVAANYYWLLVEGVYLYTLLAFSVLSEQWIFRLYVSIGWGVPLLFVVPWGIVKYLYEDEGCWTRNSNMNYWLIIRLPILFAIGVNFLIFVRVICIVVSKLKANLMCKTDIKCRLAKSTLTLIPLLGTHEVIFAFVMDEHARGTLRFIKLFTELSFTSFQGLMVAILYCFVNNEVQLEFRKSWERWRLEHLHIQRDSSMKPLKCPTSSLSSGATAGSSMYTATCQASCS

Row | EC50 (human GLP-R; Table 1, cAMP, CHO cells) [nM] | EC50 (GIP-R; Table 1, cAMP, CHO cells) [nM] | Substance | human GCG-R % max GCG (human GCG-R; comparative table) [%] | human GLP-R % max GLP-1 (human GLP-R; comparative table) [%] | human GIP-R % max GIP (GIP-R; comparative table) [%] | EC50 (human GCG-R) [nM] | human GCG-R % max GCG (human GCG-R; [1]) [%] | human GLP-R % max GLP-1 (human GLP-R; [2]) [%] | human GIP-R % max GIP (GIP-R; [3]) [%] | EC50 (GIP-R; comparative table) [nM] | EC50 (human GLP-R; comparative table) [nM]
1 | – | – | I: Ac-[dY]AVGTFTSDK([γGlu-Palmitoyl])SKYLDERAAQDFVQWLLEGGPSSGAPPPSC-NH2 / II: GGGLPETGGSGS-OH (linker I:40-II:N via X1) [compound 13] | 99 | 73 | 91 | – | – | – | – | – | –
2 | – | – | I: H-Y[Aib]EGTFTSDK([γGlu-γGlu-Palmitoyl])SIYLDKQAA[Aib]EFVNWLLAGGPSSGAPPPSC-NH2 / II: GGGLPETGGSGS-OH (linker I:40-II:N via X1) [compound 9] | 109 | 91 | 100 | 8.86 | 109.0 | 99.9 | 90.7 | 0.01 | –
3 | – | – | I: Ac-[dY]ALGTFTSDK([γGlu-Palmitoyl])SKYLDERAAQDFVQWLLEGGPSSGAPPPSC-NH2 / II: GGGLPETGGSGS-OH (linker I:40-II:N via X1) [compound 12] | 100 | 94 | 90 | – | – | – | – | – | –
4 | 0.129 | > 600 | Dulaglutide [reference compound] | – | – | – | > 600 | 1.6 | 98.2 | 13.8 | – | –
5 | – | – | I: Desaminotyrosyl-AEGTFTSDK([γGlu-Palmitoyl])SKYLDERAAQDFVQWLLEGGPSSGAPPPSC-NH2 / II: GGGLPETGGSGS-OH (linker I:39-II:N via X1) [compound 11] | 28 | 67 | 83 | – | – | – | – | – | –
6 | – | – | I: H-Y[Aib]EGTFTSDK([γGlu-γGlu-Palmitoyl])SIYLDKQAA[Aib]EFVNWLLAGGPSSGAPPPSC-NH2 / II: LPETGGSGS-OH (linker I:40-II:N via X1) [compound 10] | 98 | 96 | 97 | – | 100.2 | 96.7 | 86.7 | 0.01 | 0.02
